# According to patent US20250230193A1, “CYCLIC COMPOUND HAVING SELECTIVE KRAS INHIBITORY EFFECT ON HRAS AND NRAS” (CHUGAI SEIYAKU KABUSHIKI KAISHA, priority 2022, published 2025):
# *1 amine or outer side, *2 acyl side, *3 side chain or, on linkers, in order; H or OH if unused. Where a SMILES comes first, the peptide text is derived from it. Bridges are numbered along the chain shown (N, C = ends). [ ]: non-standard residue; d: D form. The star is where a group is joined. hPhe(3-Cl-4-CF3) = N[C@@H](CCc1ccc(C(F)(F)F)c(Cl)c1)C(=O)O; NPrPhe(4-CF3) = CCCN[C@@H](Cc1ccc(C(F)(F)F)cc1)C(=O)O; X19 = CCCCN([C@@H](Cc1ccc(C)cc1)C(=O)[*:2])[*:1]; NMeGly(cPent) = CN[C@H](C(=O)O)C1CCCC1; Pro(4,4-F2) = O=C(O)[C@@H]1CC(F)(F)CN1; NMeD = CN[C@@H](CC(=O)O)C(=O)O; NMeL = CN[C@@H](CC(C)C)C(=O)O; Morpholide = C1CN(*)CCO1; NMeA = CN[C@@H](C)C(=O)O; Ac5c = NC1(C(=O)O)CCCC1; Aze = O=C(O)[C@@H]1CCN1; Ac4c = NC1(C(=O)O)CCC1; Sar = CNCC(=O)O
# Experiments:
# [1] = target: GDP-bound NRAS wild-type protein (Homo sapiens, UniProt P01111); experiment: Binding to NRAS by surface plasmon resonance (SPR), Single Cycle Kinetics
# Sequence of GDP-bound NRAS wild-type protein (P01111 whole entry): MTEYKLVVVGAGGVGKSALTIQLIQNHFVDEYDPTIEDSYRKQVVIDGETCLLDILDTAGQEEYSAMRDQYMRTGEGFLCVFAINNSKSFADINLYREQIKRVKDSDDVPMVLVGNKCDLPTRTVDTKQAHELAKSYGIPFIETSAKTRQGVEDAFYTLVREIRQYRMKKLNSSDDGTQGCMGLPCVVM
# [2] = target: GDP-bound HRAS wild-type protein (Homo sapiens, UniProt P01112); experiment: Binding to HRAS by surface plasmon resonance (SPR), Single Cycle Kinetics
# Sequence of GDP-bound HRAS wild-type protein (P01112 whole entry): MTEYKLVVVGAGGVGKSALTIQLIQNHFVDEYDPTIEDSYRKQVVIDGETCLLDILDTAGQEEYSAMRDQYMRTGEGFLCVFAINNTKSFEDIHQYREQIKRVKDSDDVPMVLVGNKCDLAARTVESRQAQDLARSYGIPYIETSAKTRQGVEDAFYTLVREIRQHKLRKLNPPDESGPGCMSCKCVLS
smiles,measurement,setting,value
CCCCN1C(=O)[C@@H]2CCN2C(=O)[C@H](C)N(C)C(=O)[C@H]([C@@H](C)CC)NC(=O)[C@H](CC(C)C)N(C)C(=O)C[C@@H](C(=O)N2CCOCC2)N(C)C(=O)[C@H](C2CCCC2)N(C)C(=O)C2(CCCC2)NC(=O)[C@@H]2CCCN2C(=O)[C@H](CCc2ccc(C(F)(F)F)c(Cl)c2)NC(=O)CN(C)C(=O)[C@@H]1Cc1ccc(C)cc1 [PP0055] ([NMeL]I[NMeA][Aze][X19][Sar][hPhe(3-Cl-4-CF3)]P[Ac5c][NMeGly(cPent)][NMeD]-Morpholide; lactam N-11),NRAS/KRAS (ratio of KD for GDP-bound NRAS wild-type to KD for KRAS),"[1]; KD ratio NRAS/KRAS, SPR",C (A compound having a KD ratio of 0.1 or more and less than 3 is denoted as C)
same,HRAS/KRAS (ratio of KD for GDP-bound HRAS wild-type to KD for KRAS),"[2]; KD ratio HRAS/KRAS, SPR",C (A compound having a KD ratio of 0.1 or more and less than 3 is denoted as C)
CCC[C@H]1C(=O)N[C@@H]([C@@H](C)CC)C(=O)N(C)CC(=O)N(C)[C@H]2C/C=C\CCN(C2=O)[C@@H](Cc2ccc(C(F)(F)F)cc2)C(=O)N(C)CC(=O)N[C@@H](CCc2ccc(Cl)c(Cl)c2)C(=O)N2CCOC[C@H]2C(=O)NC2(CC(C)(C)C2)C(=O)N(C)[C@@H](C(CC)CC)C(=O)N(C)[C@H](C(=O)N(C)C)CC(=O)N1C [PP2920],NRAS/KRAS (ratio of KD value with respect to GDP-bound NRAS wild-type protein to KD value with respect to KRAS),"[1]; KD ratio NRAS/KRAS, class symbols",AA (a compound having 20 or more is denoted as AA)
same,HRAS/KRAS (ratio of KD value with respect to GDP-bound HRAS wild-type protein to KD value with respect to KRAS),"[2]; KD ratio HRAS/KRAS, class symbols",A (a compound having 10 or more and less than 20 is denoted as A)
"CCCN1C(=O)[C@@H]2CCN2C(=O)CN(C)C(=O)[C@H]([C@@H](C)CC)NC(=O)[C@H](CC(C)C)N(C)C(=O)C[C@@H](C(=O)N(C)C)N(C)C(=O)[C@H](C2CCCC2)N(C)C(=O)C2(CCC2)NC(=O)[C@@H]2CC(F)(F)CN2C(=O)[C@H](CCc2ccc(C(F)(F)F)c(Cl)c2)NC(=O)CN(C)C(=O)[C@@H]1Cc1ccc(C(F)(F)F)cc1 [PP0443] ([NMeL]I[Sar][Aze][NPrPhe(4-CF3)][Sar][hPhe(3-Cl-4-CF3)][Pro(4,4-F2)][Ac4c][NMeGly(cPent)][NMeD]-NMe2; lactam N-11)",NRAS/KRAS (ratio of KD value with respect to GDP-bound NRAS wild-type protein to KD value with respect to KRAS),"[1]; KD ratio NRAS/KRAS, SPR",C (A compound having a KD ratio of 0.1 or more and less than 3 is denoted as C)
same,HRAS/KRAS (ratio of KD value with respect to GDP-bound HRAS wild-type protein to KD value with respect to KRAS),"[2]; KD ratio HRAS/KRAS, SPR",C (A compound having a KD ratio of 0.1 or more and less than 3 is denoted as C)
CCC[C@H]1C(=O)N[C@@H]([C@@H](C)CC)C(=O)N2CCC[C@H]2C(=O)N(C)[C@H]2C/C=C\CCN(C2=O)[C@@H](CC2CCC(F)(F)CC2)C(=O)N(C)CC(=O)N[C@@H](CCc2ccc(C(F)(F)F)c(OC)c2)C(=O)N2C[C@@H](C)C[C@H]2C(=O)N(C)C2(CCC2)C(=O)N(C)[C@@H](C2CCCC2)C(=O)N(C)[C@H](C(=O)N(C)C)CC(=O)N1C [PP2380],NRAS/KRAS (ratio of KD value with respect to NRAS to KD value with respect to KRAS),"[1]; SPR, GDP-bound NRAS wild-type vs GDP-bound KRAS wild-type",A (a compound having 10 or more and less than 20 is denoted as A)
same,HRAS/KRAS (ratio of KD value with respect to HRAS to KD value with respect to KRAS),"[2]; SPR, GDP-bound HRAS wild-type vs GDP-bound KRAS wild-type",A (a compound having 10 or more and less than 20 is denoted as A)
CCO[C@@H]1C[C@H]2C(=O)NC3(CC(C)(C)C3)C(=O)N(C)[C@@H](C3CCCC3)C(=O)N(C)[C@H](C(=O)N(C)CC)CC(=O)N(C)[C@H]3CCCC/C=C/c4ccc(cc4)C[C@@H](C(=O)N(C)CC(=O)N[C@@H](CCc4cc(F)c(C(F)(F)F)c(F)c4)C(=O)N2C1)N1CC/C=C\C[C@@H](C1=O)N(C)C(=O)CN(C)C(=O)[C@H]([C@@H](C)CC)NC3=O [PP1829],NRAS/KRAS (ratio of KD value for NRAS to KD value for KRAS),"[1]; KD ratio, GDP-bound NRAS wild-type vs GDP-bound KRAS wild-type, SPR",A (a compound having 10 or more and less than 20 is denoted as A)
same,HRAS/KRAS (ratio of KD value for HRAS to KD value for KRAS),"[2]; KD ratio, GDP-bound HRAS wild-type vs GDP-bound KRAS wild-type, SPR",B (a compound having 3 or more and less than 10 is denoted as B)
CCC(CC)[C@@H]1NC(=O)[C@H](CC(C)C)N(C)C(=O)C[C@@H](C(=O)N2CCOCC2)N(C)C(=O)[C@H](C2CCCC2)N(C)C(=O)C2(CCCC2)NC(=O)[C@@H]2CCCN2C(=O)[C@H](CCc2cc(F)c(C(F)(F)F)c(F)c2)NC(=O)CN(C)C(=O)[C@H](Cc2ccc(C(F)(F)F)cc2)N2CCCC[C@@H](C2=O)N(C)C(=O)CN(C)C1=O [PP0597],NRAS/KRAS (ratio of KD value with respect to GDP-bound NRAS wild-type protein to KD value with respect to KRAS),"[1]; KD ratio NRAS/KRAS, SPR",B (a compound having 3 or more and less than 10 is denoted as B)
same,HRAS/KRAS (ratio of KD value with respect to GDP-bound HRAS wild-type protein to KD value with respect to KRAS),"[2]; KD ratio HRAS/KRAS, SPR",B (a compound having 3 or more and less than 10 is denoted as B)
